Source: PMC4835877, “HM71224, a novel Bruton’s tyrosine kinase inhibitor, suppresses B cell and monocyte activation and ameliorates arthritis in a mouse model: a potential drug for rheumatoid arthritis” (Arthritis Research & Therapy, 2016)

Tests used:
[1] = test system: phosphorylation of Btk and PLCγ2 in primary human B cells; test: BCR signaling in primary human B cells (immunoblot); assay type: cell-based; conditions: BCR ligation
Description: Ramos cells or human B cells were pretreated with the indicated concentrations of HM71224 and then stimulated with anti-IgM F(ab’)2 (Southern Biotech, Birmingham, AL, USA) for 10 minutes on ice. Cells were then lysed in RIPA buffer (Sigma-Aldrich), and the proteins were separated by SDS-PAGE (Bio-Rad Laboratories, Hercules, CA, USA), transferred onto polyvinylidene fluoride (PVDF) membranes, and immunoblotted with anti-pBtk Y223 (catalog number 5082; Cell Signaling Technology, Danvers, MA, USA), anti-pPLCγ2 Y759 (catalog number 3874; Cell Signaling Technology), anti-pPLCγ2 Y1217 (Cell Signaling Technology), anti-pERK T202/204 (197G2; Cell Signaling Technology), anti-Btk (C82B8; Cell Signal Technology), anti-PLCγ2 (catalog number 3872; Cell Signal Technology), anti-ERK1/2 (3A7; Cell Signaling Technology), and anti-GAPDH (FL-335; Santa Cruz Biotechnology, Santa Cruz, TX, USA) antibodies.

BTK = BTK (Homo sapiens, UniProt Q06187); test: FRET-based Z'-Lyte kinase assay; parameters: purchased ThermoFisher Scientific (contract research organization); conditions: read-out: Biochemical Inhibition, IC50
From the text: (§1) To determine the biochemical selectivity of HM71224, we tested more than 85 kinases using the fluorescence resonance energy transfer (FRET) method.

EGFR [2] = target: T1, EGFR (Homo sapiens, UniProt P00533); test: FRET-based Z'-Lyte kinase assay; parameters: purchased ThermoFisher Scientific (contract research organization); conditions: read-out: Biochemical Inhibition, IC50
From the text: as §1

EGFR [3] = target: T1, EGFR; test: Phosphorylation of EGFR in cells; assay type: cell-based; parameters: EGFR-overexpressing epidermoid carcinoma A431 cell line; endogenous in cells; host or cells: A431; conditions: cellular; read-out: IC50 on inhibiting EGFR phosphorylation
CSK = target: T2, CSK (Homo sapiens, UniProt P41240); test: FRET-based Z'-Lyte kinase assay; conditions: read-out: Biochemical Inhibition, IC50
T2 construct: purchased ThermoFisher Scientific (contract research organization)
From the text: as §1

TXK = target: T3, TXK (Homo sapiens, UniProt P42681); test: FRET-based Z'-Lyte kinase assay; conditions: read-out: Biochemical Inhibition, IC50
T3 construct: purchased ThermoFisher Scientific (contract research organization)
From the text: as §1

YES = target: T4, YES (Homo sapiens, UniProt P07947); test: FRET-based Z'-Lyte kinase assay; conditions: read-out: Biochemical Inhibition, IC50
T4 construct: purchased ThermoFisher Scientific (contract research organization)
From the text: as §1

ITK = target: T5, ITK (Homo sapiens, UniProt Q08881); test: FRET-based Z'-Lyte kinase assay; conditions: read-out: Biochemical Inhibition, IC50
T5 construct: purchased ThermoFisher Scientific (contract research organization)
From the text: as §1

LYN = target: T6, LYN (Homo sapiens, UniProt P07948); test: FRET-based Z'-Lyte kinase assay; conditions: read-out: Biochemical Inhibition, IC50
T6 construct: purchased ThermoFisher Scientific (contract research organization)
From the text: as §1

BLK = target: T7, BLK (Homo sapiens, UniProt P51451); test: FRET-based Z'-Lyte kinase assay; conditions: read-out: Biochemical Inhibition, IC50
T7 construct: purchased ThermoFisher Scientific (contract research organization)
From the text: as §1

TEC = target: T8, TEC (Homo sapiens, UniProt P42680); test: FRET-based Z'-Lyte kinase assay; conditions: read-out: Biochemical Inhibition, IC50
T8 construct: purchased ThermoFisher Scientific (contract research organization)
From the text: as §1

BMX = target: T9, BMX (Homo sapiens, UniProt P51813); test: FRET-based Z'-Lyte kinase assay; conditions: read-out: Biochemical Inhibition, IC50
T9 construct: purchased ThermoFisher Scientific (contract research organization)
From the text: as §1

LCK = target: T10, LCK (Homo sapiens, UniProt P06239); test: FRET-based Z'-Lyte kinase assay; conditions: read-out: Biochemical Inhibition, IC50
T10 construct: purchased ThermoFisher Scientific (contract research organization)
From the text: as §1

T1 sequence (P00533 25-1210): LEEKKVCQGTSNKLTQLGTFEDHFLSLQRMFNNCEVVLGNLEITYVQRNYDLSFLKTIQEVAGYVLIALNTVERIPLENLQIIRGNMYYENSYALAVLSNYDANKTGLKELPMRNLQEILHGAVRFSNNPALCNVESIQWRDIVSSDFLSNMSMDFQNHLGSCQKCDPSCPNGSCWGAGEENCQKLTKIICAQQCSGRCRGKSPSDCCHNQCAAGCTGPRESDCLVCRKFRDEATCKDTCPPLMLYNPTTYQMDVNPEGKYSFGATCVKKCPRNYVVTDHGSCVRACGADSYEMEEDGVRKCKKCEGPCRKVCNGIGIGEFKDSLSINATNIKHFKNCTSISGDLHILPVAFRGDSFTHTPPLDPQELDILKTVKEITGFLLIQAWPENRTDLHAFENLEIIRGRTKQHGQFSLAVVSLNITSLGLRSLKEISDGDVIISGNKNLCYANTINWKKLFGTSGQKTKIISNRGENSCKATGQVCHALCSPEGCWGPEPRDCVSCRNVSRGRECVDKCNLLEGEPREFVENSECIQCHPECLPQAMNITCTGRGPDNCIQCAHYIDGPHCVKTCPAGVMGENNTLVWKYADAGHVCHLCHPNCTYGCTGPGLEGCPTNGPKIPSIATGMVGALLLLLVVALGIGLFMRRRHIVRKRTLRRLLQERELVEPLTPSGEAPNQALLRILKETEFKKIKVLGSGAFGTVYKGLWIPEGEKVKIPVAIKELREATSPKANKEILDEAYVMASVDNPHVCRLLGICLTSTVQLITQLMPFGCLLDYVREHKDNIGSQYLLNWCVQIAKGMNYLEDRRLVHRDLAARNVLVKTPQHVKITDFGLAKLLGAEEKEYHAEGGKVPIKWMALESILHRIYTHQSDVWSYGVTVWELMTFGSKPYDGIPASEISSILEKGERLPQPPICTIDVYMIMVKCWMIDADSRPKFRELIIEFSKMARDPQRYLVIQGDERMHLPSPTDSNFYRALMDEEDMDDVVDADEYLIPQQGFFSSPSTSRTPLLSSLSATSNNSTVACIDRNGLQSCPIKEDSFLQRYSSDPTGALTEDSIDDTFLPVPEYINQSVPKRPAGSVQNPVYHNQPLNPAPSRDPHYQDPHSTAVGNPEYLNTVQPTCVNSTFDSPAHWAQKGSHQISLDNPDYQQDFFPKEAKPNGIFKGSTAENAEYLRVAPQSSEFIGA
T8 sequence (P42680 whole entry): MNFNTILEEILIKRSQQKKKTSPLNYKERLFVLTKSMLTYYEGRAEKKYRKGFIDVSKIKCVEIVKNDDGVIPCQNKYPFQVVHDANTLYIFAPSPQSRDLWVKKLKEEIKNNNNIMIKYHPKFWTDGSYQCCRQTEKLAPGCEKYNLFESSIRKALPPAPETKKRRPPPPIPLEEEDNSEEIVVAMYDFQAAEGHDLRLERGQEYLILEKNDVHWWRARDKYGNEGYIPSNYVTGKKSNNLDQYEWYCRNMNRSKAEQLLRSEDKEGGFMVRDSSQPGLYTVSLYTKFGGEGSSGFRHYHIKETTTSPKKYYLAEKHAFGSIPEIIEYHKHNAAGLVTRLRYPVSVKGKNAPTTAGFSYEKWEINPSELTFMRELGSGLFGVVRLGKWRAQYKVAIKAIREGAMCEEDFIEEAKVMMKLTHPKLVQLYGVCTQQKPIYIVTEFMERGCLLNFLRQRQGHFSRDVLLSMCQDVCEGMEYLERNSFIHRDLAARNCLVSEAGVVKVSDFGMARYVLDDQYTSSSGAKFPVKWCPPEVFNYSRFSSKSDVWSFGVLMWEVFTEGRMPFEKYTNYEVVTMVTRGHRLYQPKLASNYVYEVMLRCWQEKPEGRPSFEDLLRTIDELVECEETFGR
T9 sequence (P51813 whole entry): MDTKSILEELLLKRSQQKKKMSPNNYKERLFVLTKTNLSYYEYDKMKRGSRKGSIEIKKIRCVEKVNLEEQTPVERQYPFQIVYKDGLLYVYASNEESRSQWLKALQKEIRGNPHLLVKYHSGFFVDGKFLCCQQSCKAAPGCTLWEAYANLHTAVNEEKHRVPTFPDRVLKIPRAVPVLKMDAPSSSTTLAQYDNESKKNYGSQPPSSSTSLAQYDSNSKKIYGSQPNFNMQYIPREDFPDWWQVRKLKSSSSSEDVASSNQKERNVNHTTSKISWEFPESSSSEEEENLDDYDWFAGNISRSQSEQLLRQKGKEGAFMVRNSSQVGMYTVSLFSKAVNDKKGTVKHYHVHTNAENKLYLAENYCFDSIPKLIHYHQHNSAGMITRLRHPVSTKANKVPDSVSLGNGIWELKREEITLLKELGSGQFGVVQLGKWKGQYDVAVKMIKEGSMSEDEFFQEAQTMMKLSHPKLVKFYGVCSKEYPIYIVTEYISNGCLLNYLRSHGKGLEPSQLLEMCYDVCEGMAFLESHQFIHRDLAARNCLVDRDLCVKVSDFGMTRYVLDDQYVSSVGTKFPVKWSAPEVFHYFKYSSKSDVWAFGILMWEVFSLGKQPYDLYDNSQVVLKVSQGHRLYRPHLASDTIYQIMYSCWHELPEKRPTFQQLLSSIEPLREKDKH
T3 sequence (P42681 whole entry): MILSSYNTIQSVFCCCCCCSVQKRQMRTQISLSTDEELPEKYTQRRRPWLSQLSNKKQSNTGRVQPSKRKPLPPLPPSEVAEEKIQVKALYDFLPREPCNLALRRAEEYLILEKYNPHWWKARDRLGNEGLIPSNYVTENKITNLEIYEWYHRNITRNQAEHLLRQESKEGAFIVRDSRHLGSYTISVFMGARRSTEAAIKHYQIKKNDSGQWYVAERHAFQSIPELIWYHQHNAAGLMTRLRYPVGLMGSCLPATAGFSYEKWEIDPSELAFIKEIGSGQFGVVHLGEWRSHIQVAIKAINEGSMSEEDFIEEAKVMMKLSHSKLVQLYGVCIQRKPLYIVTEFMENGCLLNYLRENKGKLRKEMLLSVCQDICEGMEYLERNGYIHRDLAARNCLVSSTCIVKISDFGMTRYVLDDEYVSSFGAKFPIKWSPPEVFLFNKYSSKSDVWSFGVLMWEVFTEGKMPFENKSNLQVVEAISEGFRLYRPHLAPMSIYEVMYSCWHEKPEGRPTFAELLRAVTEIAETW
T10 sequence (P06239 whole entry): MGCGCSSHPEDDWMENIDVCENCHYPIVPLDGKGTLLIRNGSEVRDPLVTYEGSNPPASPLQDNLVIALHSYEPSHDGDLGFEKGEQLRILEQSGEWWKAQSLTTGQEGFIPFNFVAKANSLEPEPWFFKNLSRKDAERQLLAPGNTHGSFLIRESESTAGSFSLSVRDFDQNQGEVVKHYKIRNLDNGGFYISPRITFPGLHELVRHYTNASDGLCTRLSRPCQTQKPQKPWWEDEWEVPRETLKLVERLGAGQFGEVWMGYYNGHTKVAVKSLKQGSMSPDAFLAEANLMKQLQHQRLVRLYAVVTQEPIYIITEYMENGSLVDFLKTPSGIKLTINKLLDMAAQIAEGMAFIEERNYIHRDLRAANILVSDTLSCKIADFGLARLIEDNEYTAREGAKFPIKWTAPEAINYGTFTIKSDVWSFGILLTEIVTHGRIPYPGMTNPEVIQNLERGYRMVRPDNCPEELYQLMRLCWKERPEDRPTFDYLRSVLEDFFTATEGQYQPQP
T6 sequence (P07948 whole entry): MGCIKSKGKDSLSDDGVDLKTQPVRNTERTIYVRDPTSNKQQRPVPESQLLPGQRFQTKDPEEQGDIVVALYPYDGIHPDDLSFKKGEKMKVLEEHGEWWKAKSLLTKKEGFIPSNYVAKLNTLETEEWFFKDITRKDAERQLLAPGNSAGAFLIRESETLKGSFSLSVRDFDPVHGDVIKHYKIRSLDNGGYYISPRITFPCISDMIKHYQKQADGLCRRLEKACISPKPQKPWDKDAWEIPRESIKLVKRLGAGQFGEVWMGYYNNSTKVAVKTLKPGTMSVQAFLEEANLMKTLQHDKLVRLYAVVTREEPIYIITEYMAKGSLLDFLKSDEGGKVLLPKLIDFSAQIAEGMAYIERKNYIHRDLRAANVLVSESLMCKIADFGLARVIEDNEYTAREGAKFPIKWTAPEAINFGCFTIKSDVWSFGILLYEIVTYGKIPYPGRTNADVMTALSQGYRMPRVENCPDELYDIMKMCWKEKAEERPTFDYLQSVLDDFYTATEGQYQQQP
T2 sequence (P41240 whole entry): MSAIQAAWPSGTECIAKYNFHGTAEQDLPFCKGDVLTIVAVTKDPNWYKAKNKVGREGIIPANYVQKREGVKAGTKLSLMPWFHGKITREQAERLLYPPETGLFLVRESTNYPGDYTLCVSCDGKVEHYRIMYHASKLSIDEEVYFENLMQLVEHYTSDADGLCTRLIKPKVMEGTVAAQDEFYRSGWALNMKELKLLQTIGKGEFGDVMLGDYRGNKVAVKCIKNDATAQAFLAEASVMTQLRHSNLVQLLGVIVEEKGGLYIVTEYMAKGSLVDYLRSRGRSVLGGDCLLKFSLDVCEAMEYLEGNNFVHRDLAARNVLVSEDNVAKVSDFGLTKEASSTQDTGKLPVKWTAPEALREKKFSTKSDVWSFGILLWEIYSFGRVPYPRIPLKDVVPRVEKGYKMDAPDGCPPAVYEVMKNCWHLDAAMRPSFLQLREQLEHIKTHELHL
T7 sequence (P51451 whole entry): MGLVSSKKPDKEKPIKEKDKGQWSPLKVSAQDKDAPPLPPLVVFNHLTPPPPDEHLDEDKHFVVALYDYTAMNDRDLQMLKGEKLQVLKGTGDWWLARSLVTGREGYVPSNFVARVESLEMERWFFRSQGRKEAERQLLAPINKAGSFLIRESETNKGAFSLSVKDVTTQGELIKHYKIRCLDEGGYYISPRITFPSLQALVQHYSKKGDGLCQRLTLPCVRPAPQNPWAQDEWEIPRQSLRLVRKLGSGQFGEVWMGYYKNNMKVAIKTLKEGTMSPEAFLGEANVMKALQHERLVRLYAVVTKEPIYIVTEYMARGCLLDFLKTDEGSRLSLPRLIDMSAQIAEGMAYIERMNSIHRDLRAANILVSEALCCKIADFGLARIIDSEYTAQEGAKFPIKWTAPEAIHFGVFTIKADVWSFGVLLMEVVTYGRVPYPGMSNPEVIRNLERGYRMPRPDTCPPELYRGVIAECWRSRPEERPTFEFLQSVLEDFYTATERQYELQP

C=CC(=O)Nc1cccc(Oc2nc(Nc3ccc(N4CCN(C)CC4)cc3)nc3ccoc23)c1 [HM71224]
Phosphorylation of Btk and PLCγ2 [1]: effectively inhibited | IC50 (BTK): 1.95 nM | IC50 (EGFR [2]): 4.96 nM | IC50 (EGFR [3]): 800 nM | IC50 (CSK): > 1000 nM | IC50 (TXK): 4.62 nM | IC50 (YES): 562 nM | IC50 (ITK): 103 nM | IC50 (LYN): > 1000 nM | IC50 (BLK): 13.5 nM | IC50 (TEC): 4.57 nM | IC50 (BMX): 0.64 nM | IC50 (LCK): > 1000 nM
